What was measured:
[1] = molecular target: T1, hTRPA1 (Homo sapiens, UniProt O75762); assay: Fluo-4 AM calcium influx, flow cytometry, CHO cells; assay type: cell-based
T1 construct: gene TRPA1; stably overexpressed in CHO cells

[2] = molecular target: T2, mTRPA1 (Mus musculus, UniProt Q8BLA8); assay: as above; assay type: cell-based
T2 construct: gene Trpa1; stably overexpressed in CHO cells
T2 sequence (Q8BLA8 whole entry): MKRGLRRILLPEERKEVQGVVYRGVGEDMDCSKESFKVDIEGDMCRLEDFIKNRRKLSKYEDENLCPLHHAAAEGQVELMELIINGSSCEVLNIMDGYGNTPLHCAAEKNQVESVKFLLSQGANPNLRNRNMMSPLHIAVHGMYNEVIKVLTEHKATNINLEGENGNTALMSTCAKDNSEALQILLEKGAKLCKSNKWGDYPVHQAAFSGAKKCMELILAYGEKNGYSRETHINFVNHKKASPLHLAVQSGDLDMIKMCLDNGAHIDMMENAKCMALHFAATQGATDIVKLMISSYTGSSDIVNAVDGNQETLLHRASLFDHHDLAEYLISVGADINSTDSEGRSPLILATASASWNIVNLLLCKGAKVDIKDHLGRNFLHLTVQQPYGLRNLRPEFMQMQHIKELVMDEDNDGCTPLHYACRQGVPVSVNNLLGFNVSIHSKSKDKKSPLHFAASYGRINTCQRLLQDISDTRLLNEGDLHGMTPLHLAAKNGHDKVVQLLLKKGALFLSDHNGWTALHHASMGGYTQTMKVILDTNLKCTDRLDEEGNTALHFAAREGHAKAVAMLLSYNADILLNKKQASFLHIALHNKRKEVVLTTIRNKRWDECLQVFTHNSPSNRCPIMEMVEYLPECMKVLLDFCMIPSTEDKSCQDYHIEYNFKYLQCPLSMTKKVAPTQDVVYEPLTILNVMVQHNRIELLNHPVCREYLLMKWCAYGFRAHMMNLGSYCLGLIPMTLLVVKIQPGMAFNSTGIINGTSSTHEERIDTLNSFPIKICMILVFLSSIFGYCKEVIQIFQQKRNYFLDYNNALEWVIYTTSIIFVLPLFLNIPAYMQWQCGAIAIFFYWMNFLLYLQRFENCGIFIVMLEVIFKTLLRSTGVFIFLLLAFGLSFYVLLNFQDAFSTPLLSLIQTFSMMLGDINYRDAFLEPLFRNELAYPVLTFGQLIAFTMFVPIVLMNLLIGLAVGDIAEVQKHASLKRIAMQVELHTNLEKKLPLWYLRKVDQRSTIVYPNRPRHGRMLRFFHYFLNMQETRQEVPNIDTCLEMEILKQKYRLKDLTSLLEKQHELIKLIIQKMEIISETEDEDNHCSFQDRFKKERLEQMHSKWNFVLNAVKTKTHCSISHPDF

T1 sequence (O75762 whole entry): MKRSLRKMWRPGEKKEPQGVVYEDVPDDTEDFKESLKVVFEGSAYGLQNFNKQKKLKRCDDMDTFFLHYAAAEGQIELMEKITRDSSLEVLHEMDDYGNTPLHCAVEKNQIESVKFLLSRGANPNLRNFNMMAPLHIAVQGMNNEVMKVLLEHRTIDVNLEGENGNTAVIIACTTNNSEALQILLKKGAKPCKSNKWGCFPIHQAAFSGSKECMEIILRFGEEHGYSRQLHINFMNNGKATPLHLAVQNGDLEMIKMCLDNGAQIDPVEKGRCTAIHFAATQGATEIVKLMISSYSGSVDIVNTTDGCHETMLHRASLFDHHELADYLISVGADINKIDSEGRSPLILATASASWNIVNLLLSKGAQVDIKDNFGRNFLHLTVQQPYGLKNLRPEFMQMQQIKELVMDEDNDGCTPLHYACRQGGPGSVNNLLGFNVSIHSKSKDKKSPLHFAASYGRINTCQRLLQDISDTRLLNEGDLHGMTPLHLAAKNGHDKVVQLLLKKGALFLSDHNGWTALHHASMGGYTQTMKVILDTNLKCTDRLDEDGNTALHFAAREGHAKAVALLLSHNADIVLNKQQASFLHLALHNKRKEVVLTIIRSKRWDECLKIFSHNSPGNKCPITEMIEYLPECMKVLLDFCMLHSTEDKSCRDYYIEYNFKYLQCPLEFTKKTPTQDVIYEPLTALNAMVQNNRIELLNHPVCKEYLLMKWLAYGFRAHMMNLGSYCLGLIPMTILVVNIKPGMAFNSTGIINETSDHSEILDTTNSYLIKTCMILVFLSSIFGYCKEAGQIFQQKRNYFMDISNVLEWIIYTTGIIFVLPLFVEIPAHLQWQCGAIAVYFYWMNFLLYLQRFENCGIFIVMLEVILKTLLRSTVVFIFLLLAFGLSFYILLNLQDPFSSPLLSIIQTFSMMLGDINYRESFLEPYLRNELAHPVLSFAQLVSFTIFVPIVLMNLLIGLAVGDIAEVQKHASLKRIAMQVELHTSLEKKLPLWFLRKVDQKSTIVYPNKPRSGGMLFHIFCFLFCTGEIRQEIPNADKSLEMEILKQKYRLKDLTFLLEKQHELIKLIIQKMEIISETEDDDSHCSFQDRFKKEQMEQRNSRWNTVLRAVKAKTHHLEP

EC50 [1]: 5.01 mM | EC50 [2]: 4.42 mM
Compound: CC1=NCCS1 [2-MT, 2-methyl-2-thiazoline]

Reference: paper PMC8703823, “The Role of TRPA1 Channels in the Central Processing of Odours Contributing to the Behavioural Responses of Mice” (Pharmaceuticals, 2021)
